The record followed here is publication PMC4309560, “Creating Novel Activated Factor XI Inhibitors through Fragment Based Lead Generation and Structure Aided Drug Design” (PLoS ONE, 2015).

Some results are limits rather than exact numbers.

In one data set the target is T1, Human plasmin (Homo sapiens, UniProt P00747).
T1 construct: Human plasmin was from Enzyme Research Laboratories, Swansea, UK; purchased Enzyme Research Laboratories, Swansea, UK
In words: Plasmin chromogenic assay. In kind it is biochemical. The note with it: read-out: Plasmin % inhibition at 99 μM. The protocol: (§1) Enzymatic assay. […] Selected compounds were also screened against other serine proteases to evaluate their selectivity profiles.
(§2) Once the compounds were synthesized and characterized, enzymatic assays were performed to evaluate the inhibitory activity of the resulting compounds against FXIa and other serine proteases. […] IC50 values for the compounds were determined using equation: Q= V/(1+([I]/IC50)^n) Q denotes the assay readout, V denotes the uninhibited velocity of the enzyme, [I] denotes the inhibitor concentration, n denotes the slope and IC50 is the inhibitor concentration at V/2.
(§3) [S] denotes the substrate concentration.
Plasmin. Human plasmin was from Enzyme Research Laboratories, Swansea, UK.

A short description of another data set: In vivo rat PK. The note with it: female, Sprague Dawley, plasma, intravenous; rat in vivo; read-out: Rat CL (in vivo clearance). The protocol:
Two days prior to dosing, female Sprague Dawley rats were prepared by cannulation of the left carotid artery for blood sampling and by cannulation of the right jugular vein for intravenous administration. The catheters were filled with heparin (100 IU/mL), exteriorized at the nape of the neck and sealed. The surgery was performed under isoflurane (Forene®, Abbott) anesthesia. After surgery the rats were housed individually and had free access to food and water. About 16 h prior to dosing the animals were deprived of food, and fasted until 4 h after dosing. The rats had free access to drinking water during the experiment. On the experiment day, the test item formulation was administered orally by gavage or intravenously in the jugular vein. At pre-defined time points, blood samples of about 0.150 mL were withdrawn from the carotid artery up to 24h after dosing. A total of 10 samples were withdrawn. The blood samples were collected in heparinized plastic tubes and centrifuged, within 30 min, for five min at 10 000 g and +4°C. The plasma was transferred to a 96 well plate and stored at -20°C until analysis by LC/MS/MS. The studies were approved by the Göteborg Animal Research Ethical Board.

The target of the next data set is Human tPA (Homo sapiens, UniProt P00750). In words: biochemical. The settings on record: read-out: tPA % inhibition at 99 μM. The protocol: as §1, §2
Human tPA, sequence (P00750 36-562): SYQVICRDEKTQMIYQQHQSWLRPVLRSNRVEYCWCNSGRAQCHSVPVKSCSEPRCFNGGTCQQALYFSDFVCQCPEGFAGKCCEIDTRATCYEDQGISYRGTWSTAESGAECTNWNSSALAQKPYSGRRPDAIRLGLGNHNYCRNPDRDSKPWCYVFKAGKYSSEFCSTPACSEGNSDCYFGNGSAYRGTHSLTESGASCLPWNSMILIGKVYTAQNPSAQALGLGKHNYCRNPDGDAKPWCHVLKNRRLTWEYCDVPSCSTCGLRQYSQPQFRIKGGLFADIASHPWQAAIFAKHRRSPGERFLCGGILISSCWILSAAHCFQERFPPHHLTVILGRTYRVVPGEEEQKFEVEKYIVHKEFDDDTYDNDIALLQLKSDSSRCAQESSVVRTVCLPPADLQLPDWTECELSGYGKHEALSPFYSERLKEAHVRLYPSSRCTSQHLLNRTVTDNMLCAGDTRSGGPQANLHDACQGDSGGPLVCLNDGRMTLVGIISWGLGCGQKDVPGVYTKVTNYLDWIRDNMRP
tPa. Human tPA was from Biopool, Umeå, Sweden.

The next data set deals with Human FIXa (Homo sapiens, UniProt P00740). In words: biochemical. The note with it: read-out: FIXa % inhibition at 99 μM. On the procedure:
as §1, §2

For the next data set, the target named is Human FXa (Homo sapiens, UniProt P00742). Kind of data set: biochemical. The settings on record: read-out: FXa % inhibition at 99 μM. On the procedure:
as §1, §2

Data set [1] addresses T2, Human recombinant thrombin (Homo sapiens, UniProt P00734).
T2 construct: Human recombinant thrombin was prepared in house; made in house
Kind of data set: Thrombin (FIIa) chromogenic assay. Type of data set: biochemical. The note with it: read-out: FIIa % inhibition at 99 μM. On the procedure:
as §1, §2, §3
Thrombin. Human recombinant thrombin was prepared in house.

The test system of data set [2] is FXa, thrombin, trypsin, plasma kallikrein (PKK), FIXa, tissue plasminogen activator (tPA) and plasmin. In words: Serine protease selectivity panel (statements on the whole panel). In kind it is biochemical, human. The note with it: relative to FXIa. The protocol: Enzymatic assay. […] Selected compounds were also screened against other serine proteases to evaluate their selectivity profiles. All protease activities were determined by chromogenic assays monitoring the release of para-nitroanilide at 405 nm.
It is important to achieve potent FXIa inhibitors with high selectivity vs. other serine proteases in order to minimize risk for adverse effects, particularly with regard to bleeding, which limits the utility of current antithrombotic drugs, e.g. dabigatran and rivaroxaban. Selectivity data for FXa, thrombin, trypsin, plasma kallikrein (PKK), FIXa, tissue plasminogen activator (tPA) and plasmin were therefore generated and are summarized in Fig. 6. […].
Once the compounds were synthesized and characterized, enzymatic assays were performed to evaluate the inhibitory activity of the resulting compounds against FXIa and other serine proteases. All protease activities were determined by chromogenic assays monitoring the release of para-nitroanilide at 405 nm. IC50 values for the compounds were determined using equation: Q= V/(1+([I]/IC50)^n) Q denotes the assay readout, V denotes the uninhibited velocity of the enzyme, [I] denotes the inhibitor concentration, n denotes the slope and IC50 is the inhibitor concentration at V/2.

Data set [3] has as its target Recombinant human trypsin (Homo sapiens, UniProt P07477). Kind of data set: biochemical. The settings on record: read-out: Trypsin % inhibition at 99 μM. The protocol:
as §1, §2
Trypsin. Recombinant human trypsin was from Polymun, Vienna, Austria.

The target of another data set is T3, Human PKK (Homo sapiens, UniProt P03952).
T3 construct: trypsin, plasma kallikrein (PKK), FIXa; purchased Calbiochem, Darmstadt, Germany
T3 sequence (P03952 391-638 limits assumed): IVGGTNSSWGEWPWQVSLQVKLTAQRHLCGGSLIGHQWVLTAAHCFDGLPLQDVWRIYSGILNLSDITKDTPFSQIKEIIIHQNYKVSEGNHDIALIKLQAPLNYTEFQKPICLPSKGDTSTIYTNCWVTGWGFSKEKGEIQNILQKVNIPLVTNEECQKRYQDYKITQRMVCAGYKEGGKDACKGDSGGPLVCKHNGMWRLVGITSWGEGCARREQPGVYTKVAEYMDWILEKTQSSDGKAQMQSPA
T3 sequence (P03952 20-390 partner limits assumed): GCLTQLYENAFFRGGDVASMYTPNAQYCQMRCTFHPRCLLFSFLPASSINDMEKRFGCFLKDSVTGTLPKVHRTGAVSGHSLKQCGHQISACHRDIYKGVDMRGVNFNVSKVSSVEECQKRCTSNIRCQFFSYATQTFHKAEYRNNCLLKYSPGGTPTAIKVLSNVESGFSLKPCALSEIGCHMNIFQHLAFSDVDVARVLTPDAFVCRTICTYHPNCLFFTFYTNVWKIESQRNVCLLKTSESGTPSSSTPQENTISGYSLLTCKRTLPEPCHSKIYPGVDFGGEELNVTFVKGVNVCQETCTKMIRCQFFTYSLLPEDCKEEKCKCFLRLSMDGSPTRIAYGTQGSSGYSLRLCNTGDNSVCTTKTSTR
In words: PKK (plasma kallikrein) chromogenic assay. In kind it is biochemical. On the procedure: as §1, §2, §3
PKK. Human PKK was from Calbiochem, Darmstadt, Germany.

A further data set concerns Caco2 cells. In words: Caco2 permeability. In kind it is in vitro ADME. The settings on record: measured at pH 6.5. On the procedure: A monolayer of Caco2 cells, cultured on semi-permeable polycarbonate surfaces, was used to study the permeability in the apical to basolateral direction. The process was atomized by a robotic Tecan EVO platform (Männerdorf, Switzerland) and 24-transwell plates from Costar (Cambridge, MA, USA). HBSS buffer pH 7.4 was dispensed to the basal side of the monolayer. […] Samples for quantitative analysis by LC/MS/MS were withdrawn before the addition of the test substrate and at 45 and 120 min post addition of the test substrate. During incubation the transwell plates were placed in a shaking incubator at 37°C between sampling. The peak areas were exported to Excel where Papp-values and recoveries were calculated. Twenty-two reference compounds with known human oral bioavailability were used to establish a correlation curve with Papp versus the fraction of the oral dose absorbed (fa).

For the next data set, the system named is rat FXIa. Kind of data set: Species selectivity: rat FXIa potency. Type of data set: biochemical. The settings on record: rat vs human FXIa.
Another data set concerns the target T4, Human FXIa (Homo sapiens, UniProt P03951).
T4 construct: purchased HTI, Essex Junction, USA
Kind of data set: FXIa enzymatic chromogenic assay. Type of data set: biochemical.

The next data set deals with rat hepatocytes. Kind of data set: Rat hepatocyte metabolic stability assay. In kind it is in vitro ADME. On the procedure:
Rat hepatocyte metabolic stability was determined in accordance with the method described by Jacobson et al.. Cryo preserved hepatocytes at a concentration of 10^6 viable cells/mL were used. After thawing, hepatocytes were incubated for 10 min to warm to 37°C and test compounds, dissolved in acetonitrile, were added to give a final concentration of 1 μM. At 0.5, 5, 15, 30, 45, 60, 80, 100 and 120 min, the incubation system was mixed and 20 μL aliquots were transferred at each time point to wells in a separate plate filled with 80 μL acetonitrile to stop the reaction. The quenching plate was then vortexed followed by centrifugation, and supernatants were analyzed by LC/MS/MS. Peak areas were determined from extracted ion chromatograms, and the in vitro intrinsic clearance (in vitro CLint, in μL/min/10^6 cells) of parent compound was calculated from the slope in the regression analysis of the natural logarithm of parent concentration vs. time curve.

T4 sequence (P03951 388-625): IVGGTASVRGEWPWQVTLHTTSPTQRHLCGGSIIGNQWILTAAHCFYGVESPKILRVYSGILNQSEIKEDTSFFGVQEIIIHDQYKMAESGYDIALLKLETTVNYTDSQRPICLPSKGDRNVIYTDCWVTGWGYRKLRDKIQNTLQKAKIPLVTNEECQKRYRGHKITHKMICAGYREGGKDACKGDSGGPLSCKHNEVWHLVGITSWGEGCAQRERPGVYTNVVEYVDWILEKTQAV
T4 sequence (P03951 19-387): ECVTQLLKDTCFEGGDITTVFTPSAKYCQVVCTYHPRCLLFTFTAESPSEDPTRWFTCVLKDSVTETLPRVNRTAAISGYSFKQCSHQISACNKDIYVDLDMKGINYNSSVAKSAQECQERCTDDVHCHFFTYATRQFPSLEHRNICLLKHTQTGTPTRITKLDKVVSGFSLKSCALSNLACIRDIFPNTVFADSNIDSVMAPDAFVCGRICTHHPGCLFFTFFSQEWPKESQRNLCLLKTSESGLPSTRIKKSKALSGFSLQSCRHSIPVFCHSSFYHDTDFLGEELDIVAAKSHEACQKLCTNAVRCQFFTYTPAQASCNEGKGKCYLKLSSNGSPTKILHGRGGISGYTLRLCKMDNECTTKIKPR
Human FXa, sequence (P00742 235-488 limits assumed): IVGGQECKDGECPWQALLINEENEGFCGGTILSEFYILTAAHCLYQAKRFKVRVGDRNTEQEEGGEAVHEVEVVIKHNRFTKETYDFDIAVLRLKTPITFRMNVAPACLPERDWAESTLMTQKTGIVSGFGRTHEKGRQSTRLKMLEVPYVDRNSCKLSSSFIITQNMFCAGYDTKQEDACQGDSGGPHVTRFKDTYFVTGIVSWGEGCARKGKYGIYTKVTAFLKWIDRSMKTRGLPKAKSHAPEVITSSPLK
Human FXa, sequence (P00742 41-179 partner limits assumed): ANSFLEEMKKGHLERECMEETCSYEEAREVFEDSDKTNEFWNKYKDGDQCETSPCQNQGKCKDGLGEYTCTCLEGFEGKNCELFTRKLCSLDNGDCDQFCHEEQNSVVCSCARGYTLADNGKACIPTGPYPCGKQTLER
T1 sequence (P00747 581-810 limits assumed): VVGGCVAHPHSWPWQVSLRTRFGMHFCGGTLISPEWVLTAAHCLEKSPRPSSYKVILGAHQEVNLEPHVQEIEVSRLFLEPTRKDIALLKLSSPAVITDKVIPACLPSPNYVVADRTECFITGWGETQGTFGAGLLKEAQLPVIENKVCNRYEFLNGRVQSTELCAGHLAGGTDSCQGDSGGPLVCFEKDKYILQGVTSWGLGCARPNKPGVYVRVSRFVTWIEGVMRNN
T1 sequence (P00747 97-580 partner limits assumed): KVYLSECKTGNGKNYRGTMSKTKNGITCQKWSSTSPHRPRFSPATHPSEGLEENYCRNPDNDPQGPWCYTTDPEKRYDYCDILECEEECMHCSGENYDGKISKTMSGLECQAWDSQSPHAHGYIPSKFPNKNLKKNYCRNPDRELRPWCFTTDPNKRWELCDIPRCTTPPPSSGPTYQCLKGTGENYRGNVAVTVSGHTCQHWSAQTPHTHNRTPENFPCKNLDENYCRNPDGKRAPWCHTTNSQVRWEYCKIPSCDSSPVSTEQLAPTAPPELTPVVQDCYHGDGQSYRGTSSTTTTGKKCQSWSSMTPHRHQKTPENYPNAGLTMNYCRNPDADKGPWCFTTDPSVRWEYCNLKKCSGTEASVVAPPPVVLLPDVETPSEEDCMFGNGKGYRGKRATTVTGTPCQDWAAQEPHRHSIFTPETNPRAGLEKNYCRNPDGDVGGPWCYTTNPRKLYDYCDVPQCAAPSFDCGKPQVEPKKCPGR
Human FIXa, sequence (P00740 227-461 limits assumed): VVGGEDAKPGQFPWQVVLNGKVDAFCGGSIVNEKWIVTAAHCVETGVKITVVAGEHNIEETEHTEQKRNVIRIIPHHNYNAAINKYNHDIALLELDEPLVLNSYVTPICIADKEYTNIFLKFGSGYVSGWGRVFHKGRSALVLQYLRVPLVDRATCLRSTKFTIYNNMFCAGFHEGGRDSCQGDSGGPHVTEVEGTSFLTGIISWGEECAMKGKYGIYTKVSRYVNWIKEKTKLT
Human FIXa, sequence (P00740 47-191 partner limits assumed): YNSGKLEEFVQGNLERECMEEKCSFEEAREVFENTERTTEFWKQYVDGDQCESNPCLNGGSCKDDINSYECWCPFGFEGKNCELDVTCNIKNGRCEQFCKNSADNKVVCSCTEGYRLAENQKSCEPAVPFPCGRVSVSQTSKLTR

A word on the inhibition: it is the percentage by which the read-out fell short of the control. Usually clearance stands for the volume of plasma or blood freed of the substance per unit of time. The term IC50 denotes the concentration at which inhibition is half-maximal. A lower IC50 goes with greater potency. As usually defined, the Ki is a measure of affinity in units of concentration, obtained from inhibition or displacement. As for `O=C(N[C@@H](Cc1ccccc1)C(=O)NCc1cc(=O)[nH]c2ccc(Cl)cc12)c1ccc2[nH]c(=O)cc(O)c2c1` [Compound 13, (S)-N-(1-{(6-Chloro-2-oxo-1,2-dihydroquinolin-4-yl)methylamino}-1-oxo-3-phenylpropan-2-yl)-4-hydroxy-2-oxo-1,2-dihydroquinoline-6-carboxamide], the inhibition at 99 µM on Human plasmin turned out to be 14%; at Human tPA it was 2%; at Human FIXa, 2%; at Human FXa, 18%; in [1], 11%; in data set [3], 12%. Also, in the data set “In vivo rat PK”, the clearance is 7.8 L/h/kg. For the same molecule, in data set [2], the “selectivity vs. all proteases in the panel, except PKK” value is “more than five orders of magnitude selectivity”. Besides, the IC50 was 27 nM against Human PKK and 1 nM against Human FXIa. For the same molecule, the “selectivity vs. PKK” value at Human PKK (FXIa over PKK, for 13 based on Ki values) stood at 11 fold. Also, the Ki at Human PKK (converted from IC50) is 5.6 nM; on Human FXIa (read-out: FXIa Ki), 0.5 nM. Further, the “Caco2 A to B permeability” value with Caco2 cells was < 0.28 1·10^-6 cm/s. Besides, in the data set on rat FXIa, the “potency against rat FXIa relative to human FXIa (fold less potent)” value was “about 30000 fold”. For the same molecule, the “ligand efficiency (LE)” value at Human FXIa (FXIa) was 0.32. Also, the “ΔG (binding free energy)” value on Human FXIa (FXIa, term of the ΔG link equation) was -53.1 kJ/mol. The “ΔG link (linker contribution)” value on Human FXIa (compound 13 relative to fragments 5 and 15) was -13.1 kJ/mol. In the data set with rat hepatocytes, the “Rat CLint” value is reported as 22 μL/min/ 1·10^6 cells.
